The assay relates to compound 48/80-induced lethality. As to the kind of experiment: Protection of rats from compound 48/80-induced lethality. It is filed as in vivo, rats of an inbred Wistar strain. Conditions: Rattus norvegicus, 4 h, read-out: Compound 48/80 lethality test in rats ED50, s.c. or p.o. 1 h before compound 48/80 0.5 mg/kg i.v.; protection of 50% of animals, survival after 4 hours. The method, then:
Protection of rats from compound 48/80-induced lethality
The protection from compound 48/80-induced lethal circulatory collapse appears to be a simple way of evaluating quantitatively the antihistaminic activity of test compounds. Male rats of an inbred Wistar strain, weighing 240-260 g were used in the experiment. After overnight starvation the rats were transferred to conditioned laboratories (temp.=21±1° C., relative humidity=65+5%). The rats were treated subcutaneously or orally with a test compound or with the solvent (NaCl solution, 0.9%). […] Survival after 4 hours is therefore considered to be a safe criterion of a protective effect of drug administration. The ED50 -values of the compounds of formula (I) are listed in the first column of tables 1 to 4. Said ED50 -values are the values in mg/kg body weight at which the tested compounds protect 50% of the tested animals against compound 48/80-induced lethality. The compounds of formula (I) and the pharmaceutically acceptable acid addition salts thereof are also potent serotonin-antagonists. The potency of the subject compounds as serotonin-antagonists is clearly evidenced by the results obtained in the following tests wherein the antagonistic activity of the subject compounds on the effect of serotonin is examined.
`Cc1nc2n(c(=O)c1CCN1CCC(Cc3nc4cccnc4n3Cc3ccco3)CC1)CCCS2` [Compound 178]: the ED50 stood at 0.02 mg/kg.

With `Nc1ccccc1C(=O)NCCN1CCC(Cc2nc3ccccc3n2Cc2ccco2)CC1` [Compound 466, 2-amino-N-[2-[4-[[1-(2-furanylmethyl)-1H-benzimidazol-2-yl]methyl]-1-piperidinyl]ethyl]benzamide], the ED50 turned out to be 0.02 mg/kg. As to `Cc1nc2n(c(=O)c1CCN1CCC(Cc3nc4ccccc4n3Cc3ccco3)CC1)CCCS2` [Compound 166], the ED50 is 0.04 mg/kg.

As for `Cc1nc2n(c(=O)c1CCN1CCC(Cc3nc4cccnc4n3Cc3ccccn3)CC1)CCCC2` [Compound 258], the ED50 was 0.08 mg/kg. Take `c1ccc(Cn2c(CC3CCN(CCNc4ncccn4)CC3)nc3cccnc32)nc1` [Compound 340]: the ED50 is 0.08 mg/kg. As for `Cn1ccnc1NCCN1CCC(Cc2nc3ccccc3n2Cc2ccc(F)cc2)CC1` [Compound 452, 4-[[1-[(4-fluorophenyl)methyl]-1H-benzimidazol-2-yl]methyl]-N-(1-methyl-1H-imidazol-2-yl)-1-piperidineethanamine], the ED50 was found to be 0.16 mg/kg. In the case of `Cn1cnc([N+](=O)[O-])c1NCCN1CCC(Cc2nc3ccccc3n2Cc2ccc(F)cc2)CC1` [Compound 377, 4-[[1-[(4-fluorophenyl)methyl]-1H-benzimidazol-2-yl]methyl]-N-(1-methyl-4-nitro-1H-imidazol-5-yl)-1-piperidineethanamine], the ED50 stood at 0.16 mg/kg. Take `c1coc(Cn2c(CC3CCN(CCNc4nccs4)CC3)nc3cccnc32)c1` [Compound 352, 4-[[3-(2-furanylmethyl)-3H-imidazo[4,5-b]pyridin-2-yl]methyl]-N-(2-thiazolyl)-1-piperidineethanamine]: the ED50 was 0.01 mg/kg. Regarding `COc1ccc(Cn2c(CC3CCN(CCNc4nccs4)CC3)nc3cccnc32)cc1` [Compound 365], the ED50 was found to be 0.08 mg/kg.

Regarding `Fc1ccc(Cn2c(OC3CCNCC3)nc3ccccc32)cc1` [Compound 66, 1-[(4-fluorophenyl)methyl]-2-(4-piperidinyloxy)-1H-benzimidazole], the ED50 is 0.02 mg/kg. Under `Fc1ccc(Cn2c(SC3CCN(CCOc4ncccn4)CC3)nc3ccccc32)cc1` [Compound 393, 1-[(4-fluorophenyl)methyl]-2-[[1-[2-(2-pyrimidinyloxy)ethyl]-4-piperidinyl]thio]-1H-benzimidazole] stands 0.08 mg/kg. In the case of `c1ccc(Cn2c(CC3CCN(CCNc4ncccn4)CC3)nc3cccnc32)cc1` [Compound 345], the ED50 was 0.08 mg/kg. Under `COc1ccc(Cn2c(CC3CCN(CCCn4c(=O)[nH]c5ccccc54)CC3)nc3ccccc32)cc1` [Compound 154] stands 0.08 mg/kg; under `O=C(NCCN1CCC(Cc2nc3ccccc3n2Cc2ccc(F)cc2)CC1)c1cc2ccccc2oc1=O` [Compound 445, N-[2-[4-[[1-[(4-fluorophenyl)methyl]-1H-benzimidazol-2-yl]methyl]-1-piperidinyl]ethyl]-2-oxo-2H-1-benzopyran-3-carboxamide], 0.16 mg/kg; under `O=c1[nH]c2ccccc2c(=O)n1CCN1CCC(Cc2nc3cccnc3n2Cc2ccco2)CC1` [Compound 171], 0.08 mg/kg. Regarding `Cc1nc2ccccn2c(=O)c1CCN1CCC(Cc2nc3cnccc3n2Cc2ccc(F)cc2)CC1` [Compound 274], the ED50 worked out at 0.16 mg/kg. `Fc1ccc(Cn2c(CC3CCN(CCNc4nc5ccccc5[nH]4)CC3)nc3ccccc32)cc1` [Compound 328, N-[2-[4-[[1-[(4-fluorophenyl)methyl]-1H-benzimidazol-2-yl]methyl]-1-piperidinyl]ethyl]1H-benzimidazol-2-amine]: the ED50 turned out to be 0.16 mg/kg. Take `Cc1nc2n(c(=O)c1CCN1CCC(Cc3nc4ccccc4n3Cc3ccc(F)cc3)CC1)CCCS2` [Compound 158]: the ED50 was 0.04 mg/kg. `CCNC(=O)NCCN1CCC(Cc2nc3cccnc3n2Cc2ccc(F)cc2)CC1` [Compound 429, N-ethyl-N'-[2-[4-[[3-[(4-fluorophenyl)methyl]-3H-imidazo[4,5-b]pyridin-2-yl]-methyl]-1-piperidinyl]ethyl]urea]: the ED50 was 0.02 mg/kg. For `Cc1nc2n(c(=O)c1CCN1CCC(Cc3nc4ccccc4n3Cc3ccco3)CC1)CCS2` [Compound 163], the ED50 turned out to be 0.02 mg/kg.

As to `Fc1ccc(Cn2c(CC3CCN(CCNc4ccc(Cl)nn4)CC3)nc3ccccc32)cc1` [Compound 378, 6-chloro-N-[2-[4-[[1-[(4-fluorophenyl)methyl]-1H-benzimidazol-2-yl]methyl]-1-piperidinyl]ethyl]-3-pyridazinamine], the ED50 was 0.04 mg/kg. Consider `O=c1[nH]c2ccccc2n1CCCN1CCC(Cc2nc3cccnc3n2Cc2ccco2)CC1` [Compound 152], for which the ED50 worked out at 0.04 mg/kg. In the case of `COc1ccc(CCN2CCC(Cc3nc4ccccc4n3Cc3ccc(C)o3)CC2)cc1` [Compound 266], the ED50 amounted to 0.04 mg/kg. To `O=c1cc[nH]c(=O)n1CCN1CCC(Cc2nc3ccccc3n2Cc2ccco2)CC1` [Compound 175] belongs 0.02 mg/kg. Turning to `Fc1ccc(Cn2c(CC3CCN(CCSc4ccccc4)CC3)nc3ccccc32)cc1` [Compound 129], the ED50 was found to be 0.16 mg/kg. Take `Fc1ccc(Cn2c(OC3CCN(CCOc4ncccn4)CC3)nc3ccccc32)cc1` [Compound 390, 1-[(4-fluorophenyl)methyl]-2-[[1-[2-(2-pyrimidinyloxy)ethyl]-4-piperidinyl]oxy]-1H-benzimidazole]: the ED50 was determined as 0.04 mg/kg. Turning to `COc1ccc(CCN2CCC(Cc3nc4ncccc4n3Cc3ccc(F)cc3)CC2)cc1` [Compound 203, 1-[(4-fluorophenyl)methyl]-2-[[1-[2-(4-methoxyphenyl)ethyl]-4-piperidinyl]methyl]-1H-imidazo-[4,5-b]pyridine], the ED50 stood at 0.04 mg/kg. Turning to `CN1CCC(Cc2nc3ccccc3n2Cc2ccco2)CC1` [Compound 86], the ED50 turned out to be 0.01 mg/kg.

In the case of `CC(=O)N(C)c1ccccc1C(=O)NCCN1CCC(Cc2nc3ccccc3n2Cc2ccco2)CC1` [Compound 511], the ED50 stood at 0.16 mg/kg. In the case of `O=c1[nH]c2ccccc2c(=O)n1CCCCN1CCC(Cc2nc3ccccc3n2Cc2ccco2)CC1` [Compound 490, 3-[4-[4-[[1-(2-furanylmethyl)-1H-benzimidazol-2-yl]methyl]-1-piperidinyl]butyl]-2,4(1H,3H)-quinazolinedione], the ED50 stood at 0.31 mg/kg. To `COc1ccc(CCN2CCC(Cc3nc4ccccc4n3CCc3ccccc3)CC2)cc1` [Compound 516, 2-[[1-[2-(4-methoxyphenyl)ethyl]-4-piperidinyl]methyl]-1-(2-phenylethyl)-1H-benzimidazole] belongs 0.16 mg/kg.

`Fc1ccc(Cn2c(CC3CCNCC3)nc3ncccc32)cc1` [Compound 48, 1-[(4-fluorophenyl)methyl]-2-(4-piperidinylmethyl)-1H-imidazo[4,5-b]-pyridine]: the ED50 is 0.16 mg/kg. For the molecule `Fc1ccc(Cn2c(CC3CCN(CCSc4nc5cnccc5s4)CC3)nc3ccccc32)cc1` [Compound 388, 2-[[2-[4-[[1-[(4-fluorophenyl)methyl]-1H-benzimidazol-2-yl]methyl]-1-piperidinyl]ethyl]thio]thiazolo[4,5-c]pyridine], the ED50 is 0.16 mg/kg. With `O=C(NCCN1CCC(Cc2nc3ccccc3n2Cc2ccc(F)cc2)CC1)c1ccoc1` [Compound 434, N-[2-[4-[[1-[(4-fluorophenyl)methyl]-1H-benzimidazol-2-yl]methyl]-1-piperidinyl]ethyl]-3-furancarboxamide], the ED50 is 0.0025 mg/kg. For the molecule `Cn1c(=O)n(CCN2CCC(Cc3nc4cccnc4n3Cc3ccco3)CC2)c(=O)c2ccccc21` [Compound 170], the ED50 was 0.08 mg/kg. With `CCn1nnnc1SCCN1CCC(Cc2nc3ccccc3n2Cc2ccc(F)cc2)CC1` [Compound 181], the ED50 came out at 0.04 mg/kg. Regarding `O=c1oc2ccccc2cc1CCN1CCC(Cc2nc3ccccc3n2Cc2cccs2)CC1` [Compound 259], the ED50 worked out at 0.08 mg/kg.

As to `Cc1nc2ccccn2c(=O)c1CCN1CCC(Cc2nc3ccncc3n2Cc2ccc(F)cc2)CC1` [Compound 270], the ED50 amounted to 0.08 mg/kg.

Consider `Nc1ccccc1C(=O)NCCN1CCC(Oc2nc3ccccc3n2Cc2ccc(F)cc2)CC1` [Compound 480, 2-amino-N-[2-[4-[[1-[(4-fluorophenyl)methyl]-1H-benzimidazol-2-yl]oxy]-1-piperidinyl]ethyl]benzamide], for which the ED50 was determined as 0.02 mg/kg. Consider `c1csc(Cn2c(CC3CCN(CCNc4nccs4)CC3)nc3cccnc32)c1` [Compound 361], for which the ED50 is 0.02 mg/kg. Under `Cc1nc2n(c(=O)c1CCN1CCC(Cc3nc4cccnc4n3Cc3ccc(F)cc3)CC1)CCCS2` [Compound 205, 7-[2-[4-[[3-[(4-fluorophenyl)methyl]-3H-imidazo[4,5-b]pyridin-2-yl]methyl]-1-piperidinyl]ethyl]-3,4-dihydro-8-methyl-2H,6H-pyrimido[2,1-b][1,3]thiazin-6-one] stands 0.08 mg/kg; under `CC(C)NC(=O)CN1CCC(Cc2nc3ccccc3n2Cc2ccc(F)cc2)CC1` [Compound 134], 0.04 mg/kg. Take `Fc1ccc(Cn2c(CC3CCN(CCSc4ccccc4)CC3)nc3cccnc32)cc1` [Compound 147, 3-[(4-fluorophenyl)methyl]-2-[[1-[2-(phenylthio)ethyl]-4-piperidinyl]methyl]-3H-imidazo[4,5-b]pyridine]: the ED50 was determined as 0.08 mg/kg. With `COc1ccc(CCN2CC[C@@H](Oc3nc4ccccc4n3Cc3ccc(F)cc3)[C@H](C)C2)cc1` (relative stereo) [Compound 268], the ED50 stood at 0.16 mg/kg.

Values taken from US4839374A, “4-((Bicyclic heterocyclyl)-methyl and -hetero)-piperidines” (Janssen Pharmaceutica, N.V., priority 1987, dated 1989).
